Assay type in all cases: ADME, organism-based
The nature of data set [1]: Cmax in rat at 20 mg/kg, po. Also on record: dose 20 mg/kg, route oral. The following applies: in vivo.
Data set [2] in a line: MRT in rat at 10 mg/kg, iv. The following applies: in vivo.
Data set [3] can be described thus: Half life in rat at 10 mg/kg, iv. To be noted: in vivo.
A short description of data set [4]: AUC (0 to infinity) in rat at 10 mg/kg, iv. Also on record: dose 10 mg/kg, time infinity, route intravenous. The following applies: in vivo.
The nature of data set [5]: Apparent clearance in rat at 10 mg/kg, iv. The following applies: in vivo, read-out: CL(app) (converted).
The nature of data set [6]: MRT in rat at 20 mg/kg, po. To be noted: in vivo.
The nature of data set [7]: Tmax in rat at 10 mg/kg, iv. The following applies: in vivo.
A short description of data set [8]: Half life in rat at 20 mg/kg, po. To be noted: in vivo.
The nature of data set [9]: Oral bioavailability in rat at 20 mg/kg. To be noted: in vivo.
A short description of data set [10]: Cmax in rat at 10 mg/kg, iv. Also on record: dose 10 mg/kg, route intravenous. To be noted: in vivo.
Data set [11] in a line: Tmax in rat at 20 mg/kg, po. The following applies: in vivo.
Data set [12] in a line: AUC (0 to infinity) in rat at 20 mg/kg, po. Also on record: dose 20 mg/kg, route oral, time infinity. The following applies: in vivo.

In general, Cmax refers to the maximum level reached in the sampled fluid or tissue. For orientation: MRT means the average time that molecules of a dose stay in the body. The term half-life denotes the time in which the quantity being followed falls by half. A low value points to rapid decline. The AUC(0-inf) is the area under the concentration-time curve extrapolated to infinity. A low value points to low exposure. What is called Tmax is the time at which the peak concentration occurs. What is called bioavailability is dose-corrected exposure relative to a reference, in per cent.

Regarding `C[C@H](Cc1cc2c(c(C(N)=O)c1)N(CCCO)CC2)NCCOc1cc(Cl)ccc1OCC(F)(F)F`, the maximum concentration (Cmax) in [1] amounted to 152 ng/mL; in [10] it was 3000 ng/mL. Also, the mean residence time (MRT) in data set [2] stood at 2.34 h; in data set [6], 6.22 h. In addition, the half-life was 1.63 h in data set [3] and 4.67 h in data set [8]. In addition, the AUC(0-inf) in data set [4] was 3510 ng·h/mL; in data set [12], 1700 ng·h/mL. Moreover, the clearance in [5] was 47.5 mL/min/kg. Besides, the Tmax in [7] came to 4.98 min; in [11], 4 h. The bioavailability in data set [9] was 24.3%.

`Cc1ccc(OCC(F)(F)F)c(OCCN[C@H](C)Cc2cc(C(N)=O)c3c(ccn3CCCO)c2)c1`: the peak concentration (Cmax) in [1] was found to be 109 ng/mL; in data set [10], 2430 ng/mL. Also, the MRT in data set [2] amounted to 2.94 h; in [6] it was 3.54 h. In addition, the results for the half-life in data set [3] and in [8] were 1.1 h and 1.22 h, respectively. Besides, the results for the AUC(0-inf) in data set [4] and in [12] were 4400 ng·h/mL and 613 ng·h/mL, respectively. The clearance in data set [5] is 37.9 mL/min/kg. For the same molecule, the Tmax turned out to be 4.98 min in data set [7] and 0.5 h in data set [11]. For the same molecule, the bioavailability in [9] came to 7%.
